Test system: TNF-α
Assay: Serum TNF induced by LPS in the mouse after phospholipid pretreatment (L-929 cytotoxicity bioassay)
Format: in vivo
Settings: S. Thyphi LPS 5 µ i.p., blood 60' later; for TNF-α title treated: average ± SEM
Method: Utilized are: • 170 Charles River CD-1 albino male mice weighing about 25-30 g • 6 New Zealand male rabbits weighing about 2-2.5 kg.
The animals after 90' from the last phospholipidic treatment or with THIS (as indicated later-on), are treated by parenteral route with S. Thyphi or E. Coli (Sigma) lipopolysaccharide.
Particularly: • mouse: injection of 5 µg LPS i.p. (1st experiment) or 25 µg LPS i.v. (2nd experiment) the blood sample is taken after 60 min. • rabbit: injection of 1 µg LPS i.v.. The blood sample is taken after 90 minutes.
The following products are tested: • BC-PS (phosphatidylserine in the commercially available form consisting of a composition comprising: phosphatidylserine extracted from bovine brain as described in example 1) • PS (phosphatidylserine) • PC (phosphatidylcholine) • PG (phosphatidylglycerol) • DPS (lysophosphatidylserine) • PE (phosphatidylethanolamine) • […] (1-myristoyl-2-deoxi-3-glycerophospho-L-serine) The phospholipids purity and their composition are determined by thin layer bidimensional chromatography (Punzi, L. et al.: Phospholipids in inflammatory synovial effusions. Rheumatol. Int. 6, 7-11, 1986).
Phospholipids are then solubilized in 50 mM TRIS-HCl pH 7.8 and suitably sonicated.
The phospholipidic dispersion is then injected in animals under the following conditions: • mouse: BC-PS 15-30 mg/kg/die i.p. for 3 days or 30 mg/kg/die i.v. for 3 days DPS, PSS₄ 20 mg/kg/die i.p. for 3 days PS, PC, PG, PE 25 mg/kg/die i.p. for 3 days • rabbit: 30 mg/kg/die i.v. for 5 days.
LPS is then administered following the above mentioned conditions with successive blood sample for the seric TNF dosage.
The level of seric TNF was evaluated by biological dosage, using the fibroblasts line L-929 of murine sarcoma (American type culture collection). In fact TNF is cytotoxic against said line (Meager A. et al.: Assays for tumor necrosis factor and related cytokines. J. Immunol. Methods 116: 1-17, 1989).
Shortly, 5 x 10⁴ cells are cultured in 96 well plates with 0.1 ml RPMI 1640 medium containing 10 % (v/v) of bovine serum inactivated at 56 °C for 30'.
After 18 hours the medium is replaced with 0.1 ml of fresh medium, containing serial dilutions of serum samples to be tested in the presence of actinomycin D (2 µg/ml) and lithium chloride 20 mM in order to increase the method sensitivity, namely the TNF cytotoxicity (Beyaert R. et al.: Lithium chloride potentiates tumor necrosis factor-mediated cytotoxicity in vitro and in vivo. Proc. Natl. Acad. Sci. 86: 9494-9498, 1989).
An […] (4000 U/ml of TNF-α(Genzyme) is added to 3 wells in every plate and said wells are utilized as positive control in order to check the sensitivity level of the cellular line, namely to verify the specificity dosage.
As negative controls, wells containing untreated mice serum, are used.
After 18 hours the medium is sucked and replaced with 0.1 ml of a saline solution containing 30 mM of glucose and 0.45 mg/ml of MTT tetrazolium (3-[4,5-dimethylthiazol-2-yl]-2,5 diphenyl-tetrazolium bromide. Then, after 4 hours, 0.1 ml of an acid solution of isopropanol (0.08 N HCl in isopropanol) is added and the absorbance is read by using a plate spectrophotometer scanner provided with a filter specific for 570 nm absorbance.
TNF cytotoxicity is calculated, by applying the formula: [formula] TNF-α title in serum samples is expressed in unit/ml and corresponds to the inverse of the dilution bringing to 50 % of cellular survival (Meager A. et al.: Assays for tumor necrosis factor and related cytokines. J. Immunol. Methods 116: 1-17, 1989).
In order to validate the test an anti-TNF-α murine antibody (Genzyme) is used which, as foreseen (see the results) blocks completely the cytotoxicity of murine serum but not the one of rabbit serum.

Compound: CCCCCCCCCCCCCC(=O)OCCCOP(=O)(O)OC[C@H](N)C(=O)O [PSS₄, 1-myristoyl-2-deoxi-3-glycerophospho-L-serine]
- TNF-α title treated (dose 20 mg/kg i.p. for 3 days): 50±16 (5) U/serum ml

Compound: phosphatidylcholine [PC, reference compound]
- Inhibition (%) (dose 25 mg/kg i.p. for 3 days): 16%
- TNF-α title treated (dose 25 mg/kg i.p. for 3 days): 176±53 (12) U/serum ml

Compound: phosphatidylglycerol [PG, reference compound]
- Inhibition (%) (dose 25 mg/kg i.p. for 3 days): inactive
- TNF-α title treated (dose 25 mg/kg i.p. for 3 days): 238±37 (18) U/serum ml

Compound: phosphatidylserine [PS]
- Inhibition (%) (dose 25 mg/kg i.p. for 3 days): 68%
- TNF-α title treated (dose 25 mg/kg i.p. for 3 days): 81±21 (9) U/serum ml

Compound: phosphatidylethanolamine [PE]
- Inhibition (%) (dose 25 mg/kg i.p. for 3 days): 56%
- TNF-α title treated (dose 25 mg/kg i.p. for 3 days): 137±46 (6) U/serum ml

Compound: lysophosphatidylserine [DPS]
- Inhibition (%) (dose 20 mg/kg i.p. for 3 days): 80%
- TNF-α title treated (dose 20 mg/kg i.p. for 3 days): 45±11 (5) U/serum ml

Source: patent publication EP0505817A1, “Use of phosphatidylserine and its derivatives for the manufacture of a medicament for the treatment of degenerative pathologies also associated with immune disfunctions” (FIDIA S.p.A., priority 1991, dated 1992)
